Measured values reported in patent US9839618B2, “Compositions and methods relating to proliferative diseases” (The Penn State Research Foundation, priority 2010, dated 2017).
Where two headings read alike, the source gives them in different places.

Experiments:
[1] = tested on: FF2441 normal human fibroblasts; experiment: MTS assay viability IC50, normal fibroblasts; type: cell-based; conditions: read-out: IC50 Normal fibroblast FF2441
Description: (§1) The efficacy of leelamine to kill other cancer types is measured and the IC50 for cell lines derived from carcinomas of breast, lung, prostate, connective tissue, pancreas and colon determined. The MTS assay as described in Sharma, A. et al., Clin Cancer Res, 2009, 15:1674-85; and Madhunapantula, S. V. et al., Mol Cancer Ther, 2008, 7:1297-308 is used to establish the IC50 at 24, 48 and 72 hours of leelamine treatment for normal human epidermal melanocytes (FOM103), normal skin fibroblast cells (FF2441), normal skin keratinocytes (HFK) and compared to melanocytic lesion cells from the radial-, vertical- and metastatic melanoma stages. 5×10^3 cells per well in 100 μL of media are plated and grown in a 96-well plate for 48 to 72 hours and treated with either DMSO vehicle control or 0.62 to 40 μmol/L of leelamine for 24, 48 or 72 hours. IC50 values for each compound in μmol/L for respective cell lines are measured from three independent experiments using GraphPad Prism version 4.01 (GraphPad Software, La Jolla, Calif.). Leelamine is found to be not toxic to normal cells and effective to kill melanoma cells as well as non-melanoma cancer cells as shown in Table 1 in FIG. 20. Leelamine is 3- to 4-fold more specific at killing metastatic melanoma than normal cells, supporting cancer therapeutic utility at concentrations<2 μmol/L.
5×10^3 cells per well in 100 μL of media are plated and grown in a 96-well plate for 48 to 72 hours and treated with either DMSO vehicle control or 0.62 to 40 μmol/L of leelamine for 24, 48 or 72 hours. IC50 values for each compound in μmol/L for respective cell lines are measured from three independent experiments using GraphPad Prism version 4.01 (GraphPad Software, La Jolla, Calif.). […]
(§2) Dehydroabietylamine, its N-substituted derivatives and the corresponding dihydroabietylamine and its N-substituted derivatives are tested for their capability to inhibit cell growth of cancer cell lines, including melanoma (UACC 903, 1205Lu), breast (MCF-7), fibrosarcoma (HT-1080), colon (Caco-2), and prostate (PC-3) cancer cell lines. Viability and IC50 of normal human fibroblasts and cell lines from melanoma and other malignancies following treatment with all the agents are measured using the MTS assay (Promega, Madison, Wis.). Human fibroblast FF2441 cells, metastatic melanoma cell lines 1205 Lu and UACC 903 as well as cancer cell lines representing sarcoma (HT-1080), prostate (PC-3, LNCaP), breast (MCF-7) and lung (A-549) are maintained in DMEM (Invitrogen, Carlsbad, Calif.) supplemented with 10% FBS (Hyclone, Logan, Utah) in a 5% CO2 atmosphere, humidified 37° C. incubator. 5×10^3 cells per well in 100 μL of media are plated and grown in a 96-well plate for 48 to 72 h and treated with either DMSO vehicle control or 0.62 to 40 μmol/L for 24, 48 or 72 h. IC50 values for each compound in […] for respective cell lines are measured from three independent experiments using GraphPad Prism version 4.01 (GraphPad Software, La Jolla, Calif.). FIG. 52 is a graph showing IC50 values for leelamine and compounds 4a, 4b and 5a in treated fibroblasts (FF2441) compared to melanoma cells. Selectivity ratio here is defined as ratio of activity against fibroblasts compared to activity against melanoma cells. Leelamine is relatively selective with a ratio of >6 and >4 for UACC903 and 1205Lu melanoma cells. The selectivity ratio of compound 4a is ˜4 and ˜3 for UACC903 and 1205Lu and for compound 4b is ˜4 for both cell lines. The selectivity ratio of compound 5a is ˜4 for UACC903 and >2 for 1205Lu cells.

[2] = tested on: melanoma cell lines (UACC 903, 1205Lu); experiment: MTS assay, melanoma cell lines (cell line not given); type: cell-based, human; conditions: Homo sapiens; Example 8
Description: The mechanistic basis of leelamine's activity to inhibit melanoma cell growth is determined by examining the effect of leelamine on 1) cell viability using the MTS assay; 2) proliferation using a BrdU incorporation assay; 3) apoptosis using an assay for caspase-3/7 activity; and 4) cell cycle analysis. The MTS assay as described in Sharma, A. et al., Clin Cancer Res, 2009, 15:1674-85; and Madhunapantula, S. V. et al., Mol Cancer Ther, 2008, 7:1297-308 is used to assay cell viability. Rates of proliferation and apoptosis are measured by seeding 5×10^3 cells in 96-well plates, followed by treatment with 0.62 to 10 μmol/L of leelamine for 24 hours. Proliferating and apoptotic cells are quantified using a colorimetric cell proliferation ELISA BrdU kit (Roche diagnostics, Indianapolis, Ind.) or Apo-ONE Homogenous caspase-3/7 assay kit (Promega, Madison, Wis.), respectively, as described in Sharma, A. et al., Clin Cancer Res, 2009, 15:1674-85; and Madhunapantula, S. V. et al., Mol Cancer Ther, 2008, 7:1297-308.
as §2

[3] = tested on: UACC 903 metastatic melanoma cells; experiment: MTS assay viability IC50, UACC 903; type: cell-based, human
Description: as §1
(§3) 5×10^3 cells per well in 100 μL of media are plated and grown in a 96-well plate for 48 to 72 hours and treated with either DMSO vehicle control or 0.62 to 40 μmol/L of leelamine for 24, 48 or 72 hours. IC50 values for each compound in μmol/L for respective cell lines are measured from three independent experiments using GraphPad Prism version 4.01 (GraphPad Software, La Jolla, Calif.).
(§4) The IC50 and effect of liposomal preparations of leelamine on viability of normal human melanocytes, fibroblasts and melanoma cells UACC 903 and 1205 Lu are measured using the MTS assay (Promega, Madison, Wis.). Empty liposomes or liposomes containing abietic acid are used as controls. 5×10^3 cells per well in 100 μL of media are plated and grown in a 96-well plate for 48 or 72 hours for melanoma and normal cell lines, respectively. The cells are then treated with 0.62 to 40 μmol/L of liposome alone, a liposomal preparation of abietic acid, or with Nanolipolee-007 for 24 hours. IC50 values for each liposome in μmol/L for respective cell lines are measured from three independent experiments using GraphPad Prism version 4.01 (GraphPad Software, La Jolla, Calif.). Nanolipolee-007 retains the growth inhibitory activity of leelamine in killing melanoma cells in culture and specifically kills melanoma cells compared to normal cells, FIG. 24.
as §2, with “FIG. 52 is a graph showing IC50 values for leelamine and compounds 4a, 4b and 5a in treated fibroblasts (FF2441) compared to melanoma cells. Selectivity ratio here is defined as ratio of activity against fibroblasts compared to activity against melanoma cells. Leelamine is relatively selective with a ratio of >6 and >4 for UACC903 and 1205Lu melanoma cells. The selectivity ratio of compound 4a is ˜4 and ˜3 for UACC903 and 1205Lu and for compound 4b is ˜4 for both cell lines. The selectivity ratio of compound 5a is ˜4 for UACC903 and >2 for 1205Lu cells.” left out

[4] = tested on: 1205 Lu metastatic melanoma cells; experiment: MTS assay viability IC50, 1205 Lu; type: cell-based, human
Description: as §1, §3, §4
as §2, with “FIG. 52 is a graph showing IC50 values for leelamine and compounds 4a, 4b and 5a in treated fibroblasts (FF2441) compared to melanoma cells. Selectivity ratio here is defined as ratio of activity against fibroblasts compared to activity against melanoma cells. Leelamine is relatively selective with a ratio of >6 and >4 for UACC903 and 1205Lu melanoma cells. The selectivity ratio of compound 4a is ˜4 and ˜3 for UACC903 and 1205Lu and for compound 4b is ˜4 for both cell lines. The selectivity ratio of compound 5a is ˜4 for UACC903 and >2 for 1205Lu cells.” left out

[5] = Homo sapiens, UACC-903, Table 6, read-out: IC50 Metastatic melanoma UACC 903
[6] = Homo sapiens, UACC-903, Table 7, read-out: IC50 (UACC903)
[7] = Homo sapiens, 1205Lu, Table 6, read-out: IC50 Metastatic melanoma 1205 Lu
[8] = Table 4, read-out: IC50 Metastatic Melanoma Cell line UACC903
[9] = Table 4, read-out: IC50 Metastatic Melanoma Cell line 1205Lu
[10] = Homo sapiens, UACC-903, Example 8, read-out: IC50 UACC 903
[11] = Homo sapiens, 1205Lu, Example 8, read-out: IC50 1205Lu
[12] = Homo sapiens, 1205Lu, Table 4, read-out: IC50 Metastatic Melanoma Cell line 1205Lu
[13] = Homo sapiens, UACC-903, Table 4, read-out: IC50 Metastatic Melanoma Cell line UACC903

Row | SMILES | IC50 ([1]; Table 6) | IC50 [2] | IC50 [3, 5] | IC50 [3, 6] | IC50 [4, 7] | also measured
1 | CNC(=O)[C@]1(C)CCC[C@]2(C)C3CCC(C(C)C)=CC3=CCC21 (stereo partly drawn) [Compound 3b, (1R,4aR)-N,1,4a-trimethyl-7-(propan-2-yl)-1,2,3,4,4a,4b,5,6,10,10a-decahydrophenanthrene-1-carboxamide] | > 100 µM | > 100 µM | > 100 µM | > 100 µM | > 100 µM | 
2 | CC(C)C1C=C2C=CC3[C@](C)(CO)CCC[C@]3(C)C2CC1 (stereo partly drawn) [Compound 2b, [(1R,4aR)-1,4a-dimethyl-7-(propan-2-yl)-1,2,3,4,4a,4b,5,6,7,100a-decahydrophenanthren-1-yl]methanol] | > 100 µM |  |  |  |  | IC50 ([1]; Table 4): > 100 µM; IC50 ([3]; Example 8, read-out: IC50 UACC 903): 53 µM; IC50 [3, 8]: 52.6 ± 1.34 µM; IC50 ([3]; Table 6, read-out: IC50 Metastatic melanoma UACC 903): 52.6 ± 1.34 µM; IC50 ([3]; Table 7, read-out: IC50 (UACC903)): 52.6 µM; IC50 ([4]; Example 8, read-out: IC50 1205Lu): 60 µM; IC50 [4, 9]: 60.4 ± 1.61 µM; IC50 ([4]; Table 6, read-out: IC50 Metastatic melanoma 1205 Lu): 60.4 ± 1.61 µM
3 | CC(=O)NC[C@]1(C)CCC[C@]2(C)c3ccc(C(C)C)cc3CCC12 (stereo partly drawn) [Compound 5b, N-{[(1R,4aS)-1,4a-dimethyl-7-(propan-2-yl)-1,2,3,4,4a,9,10,10a-octahydrophenanthren-1-yl]methyl}acetamide] | > 100 µM |  | 89.4 ± 3.31 µM | 89.4 µM |  | IC50 [3, 10]: 89 µM; IC50 [4, 11]: > 50 µM; IC50 [4, 12]: > 50 µM
4 | CC(C)c1ccc2c(c1)CCC1[C@](C)(CNC(=O)C(Br)(Br)Br)CCC[C@]21C (stereo partly drawn) [GPR-5L, N-{[(1R,4aS)-1,4a-dimethyl-7-(propan-2-yl)-1,2,3,4,4a,9,10,10a-octahydrophenanthren-1-yl]methyl}-2,2,2-tribromoacetamide] |  |  | 1.01 ± 0.08 µM | 1.01 µM | 1.88 ± 0.21 µM | 
5 | CC(C)c1ccc2c(c1)CCC1[C@](C)(CNCc3ccccc3)CCC[C@]21C (stereo partly drawn) [Compound 5d, N-benzyl-1-((1R,4aS)-7-isopropyl-1,4a-dimethyl-1,2,3,4,4a,9,10,10a-octahydrophenanthren-1-yl)methanamine] |  | 6 µM | 6.05 µM | 6.05 µM |  | IC50 [3, 13]: 6.05 ± 1.32 µM
6 | CC(C)c1ccc2c(c1)CCC1[C@](C)(CNC(=O)c3ccccc3)CCC[C@]21C (stereo partly drawn) [Compound 5c, N-(((1R,4aS)-7-isopropyl-1,4a-dimethyl-1,2,3,4,4a,9,10,10a-octahydrophenanthren-1-yl)methyl)benzamide] |  | > 100 µM | > 100 µM | > 100 µM |  | 
7 | CC(C)C1=CC2=CCC3[C@](C)(CCC[C@@]3(C)C(N)=O)C2CC1 (stereo partly drawn) [Compound 3a, (1R,4aR)-1,4a-dimethyl-7-(propan-2-yl)-1,2,3,4,4a,4b,5,6,10,10a-decahydrophenanthrene-1-carboxamide] | > 100 µM |  | 70.1 ± 1.8 µM | 70.1 µM | 81.1 ± 2.09 µM | IC50 [3, 10]: 70 µM; IC50 [3, 13]: 70.1 ± 1.8 µM; IC50 [4, 12]: 81.1 ± 2.09 µM
8 | CCN(CC)C(=O)[C@]1(C)CCC[C@]2(C)C3CCC(C(C)C)=CC3=CCC21 (stereo partly drawn) [Compound 3c, (1R,4aR)-N,N-diethyl-1,4a-dimethyl-7-(propan-2-yl)-1,2,3,4,4a,4b,5,6,10,10a-decahydrophenanthrene-1-carboxamide] |  | > 100 µM |  |  |  | 
9 | CC(C)c1ccc2c(c1)CCC1[C@](C)(CNC(c3ccccc3)(c3ccccc3)c3ccccc3)CCC[C@]21C (stereo partly drawn) [Compound 5e, {[(1R,4aS)-1,4a-dimethyl-7-(propan-2-yl)-1,2,3,4,4a,9,10,10a-octahydrophenanthren-1-yl]methyl}(triphenylmethyl)amine] |  | > 100 µM |  |  |  | 
10 | CCN(CC)C[C@]1(C)CCC[C@]2(C)C3CCC(C(C)C)=CC3=CCC12 (stereo partly drawn) [Compound 4c, {[(1R,4aR)-1,4a-dimethyl-7-(propan-2-yl)-1,2,3,4,4a,4b,5,6,10,10a-decahydrophenanthren-1-yl]methyl}diethylamine] | > 100 µM |  | 24.4 ± 1.33 µM | 24.4 µM | 24.3 ± 2.5 µM | IC50 [3, 10]: 24.4 µM; IC50 [3, 13]: 24.4 ± 1.33 µM; IC50 [4, 11]: 24.3 µM; IC50 [4, 12]: 24.3 ± 2.5 µM
11 | CCOC[C@]1(C)CCC[C@]2(C)C3CCC(C(C)C)C=C3C=CC12 (some centres unmarked) [Compound 2a] |  |  |  |  |  | IC50 ([1]; Table 4): > 100 µM; IC50 [3, 8]: > 100 µM; IC50 [4, 9]: > 100 µM
